Data on two molecules can be found in US20220251163A1 (Sinopep-Allsino Biopharmaceutical Co., Ltd., priority 2019, published 2022).

The target in one experiment is T1, mGIPR (Mus musculus, UniProt Q0P543).
T1 construct: expressed in transfected cells; host or cells: HEK293
T1 sequence (Q0P543 19-460): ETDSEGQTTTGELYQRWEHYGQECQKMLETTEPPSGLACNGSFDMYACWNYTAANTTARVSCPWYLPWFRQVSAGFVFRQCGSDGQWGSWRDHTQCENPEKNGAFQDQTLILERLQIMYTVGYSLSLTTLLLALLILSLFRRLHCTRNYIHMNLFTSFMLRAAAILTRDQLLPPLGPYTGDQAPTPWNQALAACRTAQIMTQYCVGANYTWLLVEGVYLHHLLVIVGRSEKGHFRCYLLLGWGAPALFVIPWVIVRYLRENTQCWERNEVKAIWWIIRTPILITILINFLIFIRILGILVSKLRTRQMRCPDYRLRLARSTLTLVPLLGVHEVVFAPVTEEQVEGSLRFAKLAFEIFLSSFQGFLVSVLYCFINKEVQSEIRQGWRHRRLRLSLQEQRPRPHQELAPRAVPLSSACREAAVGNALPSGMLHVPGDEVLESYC
Put plainly: GIPR agonist activity, cAMP in transfected HEK293 cells. The class given is cell-based.

The target in a further experiment is T2, mGLP-1R (Mus musculus, UniProt O35659).
T2 construct: expressed in transfected cells; host or cells: HEK293
T2 sequence (O35659 22-463): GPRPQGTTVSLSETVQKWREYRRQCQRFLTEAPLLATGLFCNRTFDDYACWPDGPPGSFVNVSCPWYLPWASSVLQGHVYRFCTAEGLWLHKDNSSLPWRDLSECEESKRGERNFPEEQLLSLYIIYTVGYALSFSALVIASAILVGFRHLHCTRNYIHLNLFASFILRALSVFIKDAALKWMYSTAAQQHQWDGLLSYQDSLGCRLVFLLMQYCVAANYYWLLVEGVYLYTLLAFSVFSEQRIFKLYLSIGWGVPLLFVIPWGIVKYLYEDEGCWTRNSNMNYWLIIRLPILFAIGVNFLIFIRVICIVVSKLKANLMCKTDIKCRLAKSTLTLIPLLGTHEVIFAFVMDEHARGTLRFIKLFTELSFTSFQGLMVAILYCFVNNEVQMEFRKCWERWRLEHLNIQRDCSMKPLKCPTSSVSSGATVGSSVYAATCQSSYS
In words: GLP-1R agonist activity, cAMP in transfected HEK293 cells. The class given is cell-based.

The test system of the next experiment is ob/ob mice. In words: Blood glucose reducing experiment, single subcutaneous injection in ob/ob mice.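 On all read-outs here: random blood glucose read at each time point, decrease rate given as percentage fall versus the model control group.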 The class given is in vivo. The note with it: 100 μg/kg single s.c.; for Blood glucose at different time after administration, 0 h: 0 h (before administration); for Blood glucose at different time after administration, 0 h / Blood glucose at different time after administration, 2 h / Blood glucose at different time after administration, 4 h / Blood glucose at different time after administration, 6 h / Blood glucose at different time after administration, 10 h / Blood glucose at different time after administration, 24 h / Blood glucose at different time after administration, 34 h / AUC0-24 h Glu: X ± s, n = 7; for AUC0-24 h Glu: blood glucose curve area within 24 h; for AUC0-24 h Glu Decrease rate: versus model control group.

The nature of experiment [1]: Effect on random weight of ob/ob mice after single subcutaneous injection. The settings on record: 100 μg/kg single s.c., X ± s, n = 7. The class given is in vivo.

Like-named read-outs stand apart in the source and are kept apart here. *1 amine or outer side, *2 acyl side, *3 side chain or, on linkers, in order; H or OH if unused. Where a SMILES comes first, the peptide text is derived from it. Side-chain parts run from the residue outwards. [ ]: non-standard residue; d: D form. The star is where a group is joined. C18 diacid = O=C(O)CCCCCCCCCCCCCCCCC(=O)*; γGlu = O=C(O)[C@H](CCC(=O)[*:2])N[*:1]; AEEA = NCCOCCOCC(=O)O; Aib = CC(C)(N)C(=O)O

Method for mGIPR: HEK293 cells were co-transfected with cDNA encoding GLP-1R or GIPR. In a test for determining the compound, the cells were inoculated in a 96-well plate 2 h in advance, the polypeptide compound was dissolved with DMSO, and diluted to different multiples with a culture medium containing 0.1% bovine serum albumin and added to the co-transfected cells.
Method for mGLP-1R: HEK293 cells were co-transfected with cDNA encoding GLP-1R or GIPR. In a test for determining the compound, the cells were inoculated in a 96-well plate 2 h in advance, the polypeptide compound was dissolved with DMSO, and diluted to different multiples with a culture medium containing 0.1% bovine serum albumin and added to the co-transfected cells. After the cells were incubated for 20 min, fluorescence values were determined through microplate reader of an ELISA kit of the Cisbo Company, a standard curve was established to convert the fluorescence values into corresponding cAMP values, and the EC50 value of the compound was calculated through nonlinear regression of Graphpad Prism 5.0 software.

On to `CC[C@H](C)[C@H](NC(=O)[C@H](CCCCN)NC(=O)[C@H](CC(=O)O)NC(=O)[C@H](CC(C)C)NC(=O)[C@H](C)NC(=O)[C@@H](NC(=O)[C@H](CO)NC(=O)[C@H](Cc1ccc(O)cc1)NC(=O)[C@H](CC(=O)O)NC(=O)[C@H](CO)NC(=O)[C@@H](NC(=O)[C@H](Cc1ccccc1)NC(=O)[C@@H](NC(=O)CNC(=O)[C@H](CCC(=O)O)NC(=O)[C@H](C)NC(=O)[C@@H](N)Cc1ccc(O)cc1)[C@@H](C)O)[C@@H](C)O)[C@@H](C)CC)C(=O)N[C@@H](C)C(=O)N[C@@H](CCC(N)=O)C(=O)N[C@@H](CCCCNC(=O)COCCOCCNC(=O)COCCOCCNC(=O)CC[C@H](NC(=O)CCCCCCCCCCCCCCCCC(=O)O)C(=O)O)C(=O)N[C@@H](C)C(=O)N[C@@H](Cc1ccccc1)C(=O)N[C@H](C(=O)N[C@@H](CCC(N)=O)C(=O)N[C@@H](Cc1c[nH]c2ccccc12)C(=O)N[C@@H](CC(C)C)C(=O)N[C@H](C(=O)N[C@@H](C)C(=O)NCC(=O)NCC(=O)N1CCC[C@H]1C(=O)N[C@@H](CO)C(=O)N[C@@H](CO)C(=O)NCC(=O)N[C@@H](C)C(=O)N1CCC[C@H]1C(=O)N1CCC[C@H]1C(=O)N1CCC[C@H]1C(=O)N[C@@H](CO)C(N)=O)[C@@H](C)CC)C(C)C` [ID NO: 4], for which a half-maximal response on mGIPR (EC50) required 5.21 pM. At mGLP-1R, the midpoint of the response, the EC50, lay at 1.49 pM. Also, in the experiment on ob/ob mice, the “Blood glucose at different time after administration, 0 h” value stood at 20.43 ± 0.68 mmol/L; the “Decrease rate of blood glucose at different time after administration, 2 h” value was 50.0%; the “Blood glucose at different time after administration, 2 h” value was 10.21 ± 1.06 mmol/L; the “Decrease rate of blood glucose at different time after administration, 4 h” value worked out at 51.6%. For the same molecule, in the experiment with ob/ob mice, the “Blood glucose at different time after administration, 4 h” value is listed as 9.89 ± 0.83 mmol/L; the “Decrease rate of blood glucose at different time after administration, 6 h” value turned out to be 52.9%; the “Blood glucose at different time after administration, 6 h” value is on record as 9.63 ± 0.95 mmol/L; the “Decrease rate of blood glucose at different time after administration, 10 h” value came to 51.7%. For the same molecule, in the experiment on ob/ob mice, the “Blood glucose at different time after administration, 10 h” value turned out to be 9.86 ± 0.96 mmol/L; the “Decrease rate of blood glucose at different time after administration, 24 h” value turned out to be 46.1%; the “Blood glucose at different time after administration, 24 h” value stood at 11.01 ± 0.83 mmol/L; the “Decrease rate of blood glucose at different time after administration, 34 h” value was determined as 28.7%. In the experiment on ob/ob mice, the “Blood glucose at different time after administration, 34 h” value worked out at 14.56 ± 1.42 mmol/L; the “Decrease rate of blood glucose at different time after administration, 48 h” value is 15.2%; the “AUC0-24 h Glu” value turned out to be 255.33 ± 20.13 mmol·h/L; the “AUC0-24 h Glu Decrease rate” value is reported as 50.0%. In experiment [1], the “Changes of random body weight at different time after administration, 0 h” value was 0.0 ± 0.0 g; the “Random body weight at different time after administration, 0 h” value was 43.6 ± 1.0 g; the “Changes of random body weight at different time after administration, 24 h” value is -1.4 ± 0.2 g; the “Random body weight at different time after administration, 24 h” value came to 42.2 ± 1.0 g. For the same molecule, in experiment [1], the “Changes of random body weight at different time after administration, 48 h” value is -0.6 ± 0.1 g and the “Random body weight at different time after administration, 48 h” value came to 42.9 ± 1.1 g.

For `CC[C@H](C)[C@H](NC(=O)[C@H](CC(C)C)NC(=O)[C@H](Cc1c[nH]c2ccccc12)NC(=O)[C@H](CCC(N)=O)NC(=O)[C@@H](NC(=O)[C@H](Cc1ccccc1)NC(=O)[C@H](C)NC(=O)[C@H](CCCCNC(=O)COCCOCCNC(=O)COCCOCCNC(=O)CC[C@H](NC(=O)CCCCCCCCCCCCCCCCC(=O)O)C(=O)O)NC(=O)[C@H](CCC(N)=O)NC(=O)[C@H](C)NC(=O)[C@@H](NC(=O)[C@H](CCCCN)NC(=O)[C@H](CC(=O)O)NC(=O)[C@H](CC(C)C)NC(=O)C(C)(C)NC(=O)[C@@H](NC(=O)[C@H](CO)NC(=O)[C@H](Cc1ccc(O)cc1)NC(=O)[C@H](CC(=O)O)NC(=O)[C@H](CO)NC(=O)[C@@H](NC(=O)[C@H](Cc1ccccc1)NC(=O)[C@@H](NC(=O)CNC(=O)[C@H](CCC(=O)O)NC(=O)[C@H](C)NC(=O)[C@@H](N)Cc1ccc(O)cc1)[C@@H](C)O)[C@@H](C)O)[C@@H](C)CC)[C@@H](C)CC)C(C)C)C(=O)N[C@@H](C)C(=O)NCC(=O)NCC(=O)N1CCC[C@H]1C(=O)N[C@@H](CO)C(=O)N[C@@H](CO)C(=O)NCC(=O)N[C@@H](C)C(=O)N1CCC[C@H]1C(=O)N1CCC[C@H]1C(=O)N1CCC[C@H]1C(=O)N[C@@H](CO)C(N)=O` [ID NO: 5] (H-YAEGTFTSDYSI[Aib]LDKIAQK([AEEA-AEEA-γGlu-C18 diacid])AFVQWLIAGGPSSGAPPPS-NH2), on mGIPR (HEK293 cells transfected with GIPR, cAMP, 20 min incubation, read-out: mGIPR EC50), the EC50 (in general, the midpoint of the concentration-response curve) was found to be 6.4 pM. In addition, at mGLP-1R (HEK293 cells transfected with GLP-1R, cAMP, 20 min incubation, read-out: mGLP-1R EC50), the EC50 was 2.99 pM. In addition, in the experiment on ob/ob mice, the “Blood glucose at different time after administration, 0 h” value is reported as 20.57 ± 0.84 mmol/L; the “Decrease rate of blood glucose at different time after administration, 2 h” value turned out to be 50.8%; the “Blood glucose at different time after administration, 2 h” value came to 10.12 ± 1.20 mmol/L; the “Decrease rate of blood glucose at different time after administration, 4 h” value is given as 53.6%. Also, in the experiment on ob/ob mice, the “Blood glucose at different time after administration, 4 h” value is given as 9.54 ± 0.84 mmol/L; the “Decrease rate of blood glucose at different time after administration, 6 h” value is on record as 54.2%; the “Blood glucose at different time after administration, 6 h” value was determined as 9.43 ± 0.86 mmol/L; the “Decrease rate of blood glucose at different time after administration, 10 h” value worked out at 52.6%. For the same molecule, in the experiment on ob/ob mice, the “Blood glucose at different time after administration, 10 h” value is 9.76 ± 0.96 mmol/L; the “Decrease rate of blood glucose at different time after administration, 24 h” value amounted to 47.1%; the “Blood glucose at different time after administration, 24 h” value is given as 10.89 ± 1.43 mmol/L; the “Decrease rate of blood glucose at different time after administration, 34 h” value worked out at 35.2%. In the experiment on ob/ob mice, the “Blood glucose at different time after administration, 34 h” value came out at 13.33 ± 2.10 mmol/L; the “Decrease rate of blood glucose at different time after administration, 48 h” value is listed as 15.8%; the “AUC0-24 h Glu” value was found to be 252.25 ± 19.68 mmol·h/L; the “AUC0-24 h Glu Decrease rate” value stood at 50.6%. In addition, in experiment [1], the “Changes of random body weight at different time after administration, 0 h” value is listed as 0.0 ± 0.0 g; the “Random body weight at different time after administration, 0 h” value stood at 43.5 ± 0.9 g; the “Changes of random body weight at different time after administration, 24 h” value is -1.4 ± 0.2 g; the “Random body weight at different time after administration, 24 h” value was found to be 42.0 ± 0.9 g. For the same molecule, in experiment [1], the “Changes of random body weight at different time after administration, 48 h” value was -0.6 ± 0.2 g and the “Random body weight at different time after administration, 48 h” value was 42.9 ± 0.9 g.
